From the supplement of paper PMC10307832

Experiments:
Assay in all cases: relative viability (nuclei count vs DMSO), 5 days (fraction); higher = more cells survive
[1] = tested on: NCI-H460
Procedure, shortened: (§1)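 Values are medians from duplicate plates. Each reflects relative viability, defined as the nuclei count of treated wells over that of vehicle wells. Lung cancer cell lines in 1536-well plates were pin-tool dosed one day after seeding with one drug alone or with a fixed anchor-drug dose plus five library-drug doses (not always all listed) in √10 steps, then fixed, stained and imaged at 4× after 5 days.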

[2] = tested on: NCI-H1975
Procedure, shortened: as §1

[3] = tested on: NCI-H2126
Procedure, shortened: as §1

[4] = tested on: NCI-H596
Procedure, shortened: as §1

[5] = tested on: NCI-H727
Procedure, shortened: as §1

[6] = tested on: NCI-H2085
Procedure, shortened: as §1

[7] = tested on: LCLC-103H
Procedure, shortened: as §1

[8] = tested on: LOU-NH91
Procedure, shortened: as §1

[9] = tested on: RERF-LC-KJ
Procedure, shortened: as §1

[10] = tested on: HARA
Procedure, shortened: as §1

[11] = tested on: NCI-H838
Procedure, shortened: as §1

[12] = tested on: NCI-H1734
Procedure, shortened: as §1

[13] = tested on: CAL-12T
Procedure, shortened: as §1

[14] = tested on: A-427
Procedure, shortened: as §1

[15] = tested on: NCI-H647
Procedure, shortened: as §1

[16] = tested on: NCI-H1944
Procedure, shortened: as §1

[17] = tested on: BEN
Procedure, shortened: as §1

[18] = tested on: ABC-1
Procedure, shortened: as §1

[19] = tested on: NCI-H1666
Procedure, shortened: as §1

[20] = tested on: NCI-H520
Procedure, shortened: as §1

[21] = tested on: SW 900
Procedure, shortened: as §1

[22] = tested on: NCI-H661
Procedure, shortened: as §1

[23] = tested on: NCI-H1651
Procedure, shortened: as §1

In the case of `CN1CCN(CCOc2cc(OC3CCOCC3)c3c(Nc4c(Cl)ccc5c4OCO5)ncnc3c2)CC1` [Saracatinib] + CCNC(=O)c1noc(-c2cc(C(C)C)c(O)cc2O)c1-c1ccc(CN2CCOCC2)cc1 [Luminespib] (partner 0.01 µM), the relative viability ([1]; first compound 0.02 µM) is reported as 0.0378, the relative viability ([1]; first compound 0.2 µM) is reported as 0.0238 and the relative viability ([1]; first compound 0.6325 µM) is reported as 0.0253. It also gave a relative viability ([1]; first compound 2 µM) of 0.0287, a relative viability ([2]; first compound 0.02 µM) of 0.202 and a relative viability ([2]; first compound 0.2 µM) of 0.243. The relative viability ([2]; first compound 0.6325 µM) was 0.182, the relative viability ([2]; first compound 2 µM) was 0.188 and the relative viability ([3]; first compound 0.02 µM) was 0.878. The relative viability ([3]; first compound 0.2 µM) was 0.895, the relative viability ([3]; first compound 0.6325 µM) was 0.852 and the relative viability ([3]; first compound 2 µM) was 0.655. It also gave a relative viability ([4]; first compound 0.02 µM) of 1.01, a relative viability ([4]; first compound 0.2 µM) of 0.74 and a relative viability ([4]; first compound 0.6325 µM) of 0.84. For the same molecule, the relative viability ([4]; first compound 2 µM) was 0.715, the relative viability ([5]; first compound 0.02 µM) was 0.242 and the relative viability ([5]; first compound 0.2 µM) was 0.316. For the same molecule, the relative viability ([5]; first compound 0.6325 µM) was 0.266, the relative viability ([5]; first compound 2 µM) was 0.239 and the relative viability ([6]; first compound 0.02 µM) was 0.411. It also gave a relative viability ([6]; first compound 0.2 µM) of 0.347, a relative viability ([6]; first compound 0.6325 µM) of 0.481 and a relative viability ([6]; first compound 2 µM) of 0.429. The relative viability ([7]; first compound 0.02 µM) was 1.02, the relative viability ([7]; first compound 0.2 µM) was 0.902 and the relative viability ([7]; first compound 0.6325 µM) was 0.975. For the same molecule, the relative viability ([7]; first compound 2 µM) was 0.9, the relative viability ([8]; first compound 0.02 µM) was 0.356 and the relative viability ([8]; first compound 0.2 µM) was 0.29. It also gave a relative viability ([8]; first compound 0.6325 µM) of 0.385, a relative viability ([8]; first compound 2 µM) of 0.286 and a relative viability ([9]; first compound 0.02 µM) of 1.27. It also gave a relative viability ([9]; first compound 0.2 µM) of 1.38, a relative viability ([9]; first compound 0.6325 µM) of 1.29 and a relative viability ([9]; first compound 2 µM) of 1.16. For the same molecule, the relative viability ([10]; first compound 0.02 µM) was 0.686, the relative viability ([10]; first compound 0.2 µM) was 0.606 and the relative viability ([10]; first compound 0.6325 µM) was 0.485. The relative viability ([10]; first compound 2 µM) was 0.367, the relative viability ([11]; first compound 0.02 µM) was 0.264 and the relative viability ([11]; first compound 0.2 µM) was 0.411. It also gave a relative viability ([11]; first compound 0.6325 µM) of 0.307, a relative viability ([11]; first compound 2 µM) of 0.271 and a relative viability ([12]; first compound 0.02 µM) of 0.224. The relative viability ([12]; first compound 0.6325 µM) was 0.213, the relative viability ([12]; first compound 2 µM) was 0.181 and the relative viability ([13]; first compound 0.02 µM) was 0.335. For the same molecule, the relative viability ([13]; first compound 0.2 µM) was 0.407, the relative viability ([13]; first compound 0.6325 µM) was 0.365 and the relative viability ([13]; first compound 2 µM) was 0.268. It also gave a relative viability ([14]; first compound 0.02 µM) of 0.985, a relative viability ([14]; first compound 0.2 µM) of 0.755 and a relative viability ([14]; first compound 0.6325 µM) of 0.907. The relative viability ([14]; first compound 2 µM) was 0.888, the relative viability ([15]; first compound 0.02 µM) was 0.175 and the relative viability ([15]; first compound 0.2 µM) was 0.171. It also gave a relative viability ([15]; first compound 0.6325 µM) of 0.303, a relative viability ([15]; first compound 2 µM) of 0.146 and a relative viability ([16]; first compound 0.02 µM) of 0.826. It also gave a relative viability ([16]; first compound 0.6325 µM) of 0.846, a relative viability ([16]; first compound 2 µM) of 0.459 and a relative viability ([17]; first compound 0.02 µM) of 0.421. For the same molecule, the relative viability ([17]; first compound 0.6325 µM) was 0.418, the relative viability ([17]; first compound 2 µM) was 0.401 and the relative viability ([18]; first compound 0.02 µM) was 0.721. It also gave a relative viability ([18]; first compound 0.2 µM) of 0.43, a relative viability ([18]; first compound 0.6325 µM) of 0.599 and a relative viability ([18]; first compound 2 µM) of 0.766. The relative viability ([19]; first compound 0.02 µM) was 1.01, the relative viability ([19]; first compound 0.2 µM) was 1.09 and the relative viability ([19]; first compound 0.6325 µM) was 1.4. The relative viability ([19]; first compound 2 µM) was 1.15, the relative viability ([20]; first compound 0.02 µM) was 0.213 and the relative viability ([20]; first compound 0.6325 µM) was 0.221. It also gave a relative viability ([20]; first compound 2 µM) of 0.204, a relative viability ([21]; first compound 0.02 µM) of 0.187 and a relative viability ([21]; first compound 0.2 µM) of 0.152. The relative viability ([21]; first compound 0.6325 µM) was 0.176, the relative viability ([21]; first compound 2 µM) was 0.151 and the relative viability ([22]; first compound 0.02 µM) was 0.948. It also gave a relative viability ([22]; first compound 0.2 µM) of 0.921, a relative viability ([22]; first compound 0.6325 µM) of 0.943 and a relative viability ([22]; first compound 2 µM) of 0.771. For the same molecule, the relative viability ([23]; first compound 0.02 µM) was 0.912, the relative viability ([23]; first compound 0.2 µM) was 0.516 and the relative viability ([23]; first compound 0.6325 µM) was 0.965. For the same molecule, the relative viability ([23]; first compound 2 µM) was 0.837.
